Results from patent publication US20260306500A1, “METHOD OF INHIBITING ADENOSINE TRIPHOSPHATE SECRETION, METHOD OF INHIBITING HEPATIC STELLATE CELL ACTIVATION, METHOD OF DEACTIVATING HEPATIC STELLATE CELL, METHOD OF TREATING HEPATIC FIBROSIS, METHOD OF TREATING NON-ALCOHOLIC STEATOHEPATITIS, AND METHOD OF TREATING PSORIASIS” (Kurume University, priority 2023, published 2026).

Legend:
[1] = PEP; cited from earlier work
[2] = test system: VNUT; conditions: known; cited from earlier work
[3] = test system: mouse liver; assay: Thioacetamide-induced hepatic fibrosis in mice: histology, immunostaining and fibrosis score; type: in vivo; conditions: 200 mg/kg p.o. three times per week
Description: Wild-type mice, […] (manufactured by Charles River Japan), were housed on a 12-hour light/dark cycle and fed a standard solid diet (5.4% fat, CRF-1, manufactured by Oriental Yeast Co., Ltd.) ad libitum. Thioacetamide (TAA, manufactured by FUJIFILM Wako Pure Chemical Corporation) was dissolved in physiological saline at 0.9% w/v. Eight-week-old mice were randomly assigned to three groups and continuously treated for 9 weeks according to the following scheme. At Week 9, all mice were euthanized 1 hour after administration of physiological saline or IMG.
Normal control group (N=6): Physiological saline was intraperitoneally administered to mice three times per week. Eight hours after each administration, a vehicle was orally administered to the mice.
TAA group (N=6): TAA (50 mg/kg, intraperitoneal) was administered to mice. Eight hours thereafter, physiological saline was orally administered to the mice. This treatment was performed three times per week for a total of 9 weeks.
TAA+IMG group (N=6): During the first week, physiological saline was orally administered to mice. Thereafter, imeglimin (IMG) at 200 mg/kg was orally administered three times per week for 8 weeks. The administration of IMG was performed 8 hours after intraperitoneal administration of TAA (50 mg/kg).
For immunohistochemical analysis, liver samples were fixed in 4% paraformaldehyde, embedded in paraffin, and then sectioned. The sections were stained with HE or PSR. In addition, the paraffin-embedded sections were subjected to immunostaining using an α-SMA monoclonal antibody (1:500, catalog No. A5228, manufactured by Sigma-Aldrich) and an F4/80 monoclonal antibody (1:200, catalog No. MCA497GA, manufactured by AbD Serotec). The cell specimens were observed using a microscope (BZ-X700 series, manufactured by Keyence) or a confocal laser microscope (FV1000, manufactured by Olympus Corporation). The number of F4/80-positive cells was counted in four high-power fields per section. The α-SMA-positive area and the PSR-positive area were quantified using the image analysis software Fiji-ImageJ (1.54f).
A histological score was determined by a blinded investigator using the NAFLD histological scoring system of the Nonalcoholic Steatohepatitis Clinical Research Network. The total NAFLD activity score (NAS) was calculated from the total of the individual scores for steatosis ([…]), lobular inflammation (F4/80), and hepatocyte ballooning. The range of each parameter was 0 to 2 (ballooning) or 3 (the other two scores), where 0 indicates normal and 2 or 3 indicates severe. Staging of fibrosis was based on the NASH fibrosis stages, and a fibrosis stage ranging from 0 to 4 was determined according to Reference H (David E. Kleiner et al., 2005, Design and validation of a histological scoring system for nonalcoholic fatty liver disease, Hepatology, 41, 1313-1321).
All results are expressed as the mean±standard error of the mean (S.E.M.). Statistical analyses were performed using GraphPad Prism 7.0 (GraphPad Software). Significance upon comparison between two groups was evaluated by an unpaired two-tailed Student's t-test. […]. Statistical significance among three or more groups was determined by two-way analysis of variance (ANOVA) with Tukey's or Dunnett's post hoc test. Coloc2 was used to perform image analysis, automatic thresholding, and pixel intensity correlation for statistical processing. Statistical significance was assumed when the P value was <0.05.

[4] = test system: mouse auricle; assay: Imiquimod-induced psoriasis model, comparison with an anti-TNFα antibody (Example 19); type: in vivo
Description: The dorsal hair of mice was shaved and depilated (Day 0). To each of the left auricle and the depilated back of each mouse, 62.5 mg of 5% imiquimod cream (Beselna Cream 5%) was applied once daily a total of seven times (Days 1 to 7) in accordance with Example 18, to induce imiquimod-induced psoriasis (IMQ group). In the IMQ+IMG group, mice received oral administration of imeglimin (40 mg/kg) once daily (Day 1 to 7) after the imiquimod application. […] Thickness of the auricle was measured, and the degrees of erythema, desquamation, and infiltration in the affected area were rated on Days 1, 3, 5, 7, and 8 according to the PASI scoring of the DermNET Dermatology Resource (none: 0, mild: 1, moderate: 2, severe: 3, and very severe: 4). The resulting values were used to calculate the PASI score.
Further, for an auricle excised on Day 8, immunohistochemical staining was performed in the same manner as in Example 18, and auricular sections were imaged using a fluorescence microscope (BZ-X710; manufactured by Keyence Corporation).

[5] = test system: mouse auricle; assay: Imiquimod-induced psoriasis model, oral imeglimin (Example 18); type: in vivo
Description: Experimental psoriatic symptoms were induced in a mouse auricle by imiquimod. Six-week-old male C57BL/6 mice (N=5) were acclimated for one week. On Days 1 to 7, 62.5 mg of 5% imiquimod cream (Beselna Cream 5%) (3.125 mg in terms of the active ingredient, manufactured by Mochida Pharmaceutical Co. Ltd.) was applied to the right auricle of the mice for 7 consecutive days (IMQ group). Once daily after the imiquimod application, the imeglimin administration group (IMQ+IMG group) received oral administration, at 40 mg/kg, of 500-mg Twymeeg (trademark) tablets (manufactured by Sumitomo Pharma Co. Ltd.) dissolved in physiological saline. The control group received an equal volume of physiological saline. On Day 8, the mice were euthanized by cervical dislocation, and auricle thickness was measured using a dial thickness gauge (manufactured by Adachi Sogyo Co., Ltd.).
Each excised mouse auricle was fixed in 4% paraformaldehyde at 4° C. overnight. After ethanol substitution, the auricle was embedded in paraffin, sectioned using a rotary microtome Leica RM2165 (thickness, […]), and subjected to HE staining or immunohistochemical staining. For the immunohistochemical staining, the sections were deparaffinized, washed in xylene, and rehydrated through graded alcohols. The sections were incubated in DAKO at 95° C. for 30 minutes. The sections were blocked at room temperature for 60 minutes and then incubated at room temperature for 2 hours to allow reaction with a TGM1 anti-rabbit polyclonal antibody (catalog number 12912-3-AP, manufactured by Proteintech). The sample was washed and then allowed to react with a secondary antibody (Alexa 544-conjugated secondary antibody (goat anti-rabbit IgG) (manufactured by Molecular Probes)) at room temperature for 60 minutes. After allowing reaction with DAPI at room temperature for 10 minutes, the sections were mounted with Fluoromount and imaged using a fluorescence microscope (BZ-X710, manufactured by Keyence).

[6] = 40 mg/kg oral once daily, Day 8, N=5 (FIG. 33)

For `C=C(OP(=O)(O)O)C(=O)O` [PEP, phosphoenolpyruvic acid], the “energy of phosphate bond in vivo” value [1] is given as -14.8 kcal/mol.

In the case of `O=P(O)(O)C(Cl)(Cl)P(=O)(O)O` [clodronate], the VNUT inhibition [2] is listed as “known to be a VNUT inhibitor”.

For `C[C@@H]1N=C(N)NC(N(C)C)=N1` [imeglimin], the “destruction of the lobular structure, hepatocyte ballooning, and inflammatory cell infiltration” value ([3]; 8 weeks) was “reduced”, the fibrosis stage ([3]; 8 weeks) was “reducing the fibrosis stage” and the “TAA-induced increase in F4/80-positive macrophages” value ([3]; 8 weeks (FIG. 27)) was “strongly suppressed”. For the same compound, the “TAA-induced increase in α-SMA-positive reaction” value ([3]; 8 weeks (FIG. 27)) was “strongly suppressed”, the “TAA-induced increase in fibrosis score” value ([3]; 8 weeks (FIG. 28)) was “suppressed” and the PSR staining-positive area ([3]; 8 weeks, TAA+IMG vs TAA group, N=6) was “significantly reduced”. For the same compound, the “inhibitory effects on psoriatic symptoms by TMG1 immunohistochemical images” value ([4]; Day 8 (FIG. 42)) was “supported by the immunohistochemical images of TMG1”, the “erythema (excepted from the symptoms reduced)” value ([4]; imeglimin 40 mg/kg oral daily or infliximab 100 μg/mouse i.v. Days 1, 3, 5, N=5 (FIG. 38)) was “except erythema” and the “typical psoriatic symptoms induced by imiquimod, except erythema (thickness, desquamation, infiltration, PASI score)” value ([4]; imeglimin 40 mg/kg oral daily or infliximab 100 μg/mouse i.v. Days 1, 3, 5, N=5 (FIGS. 37-41)) was “reduced”. The “effect of imeglimin compared with infliximab” value ([4]; imeglimin 40 mg/kg oral vs infliximab 100 μg/mouse i.v.) was “almost equivalent, or imeglimin was more effective”, the “inhibitory effect on psoriatic symptoms by TMG1 immunohistochemical images” value ([5]; 40 mg/kg oral once daily (FIG. 36)) was “supported by the immunohistochemical images of TMG1” and the epidermal desquamation [5, 6] was “eliminated epidermal desquamation”. For the same compound, the psoriatic symptoms [5, 6] was “reduced the psoriatic symptoms” and the imiquimod-induced auricle thickening ([5]; 40 mg/kg oral once daily, N=5 (FIG. 34)) was “suppressed”.
